Several values for one entry are separate records, joined by “and”; a condition that tells them apart may be missing. Identical values can stand only once.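 48-hour exposure; five concentrations; linearly interpolated endpoints. Abbreviation: GI50, concentration required for 50% inhibition of growth. TGI: total growth inhibition.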
Assays:
Test in all cases: NCI tumour cell line growth inhibition, 48 h
DLD-1 colon = test system: DLD-1 colon
P388/ADR leukemia = test system: P388/ADR leukemia
XF 498 CNS = test system: XF 498 CNS
P388 leukemia = test system: P388 leukemia
DMS 273 small cell lung = test system: DMS 273 small cell lung
SNB-78 CNS = test system: SNB-78 CNS
M19-MEL melanoma = test system: M19-MEL melanoma
SN12K1 renal = test system: SN12K1 renal
DMS 114 small cell lung = test system: DMS 114 small cell lung
RXF-631 renal = test system: RXF-631 renal
KM20L2 colon = test system: KM20L2 colon

Row | SMILES | TGI (DLD-1 colon) [µM] | TGI (P388/ADR leukemia) [µM] | TGI (XF 498 CNS) [µM] | TGI (P388 leukemia) [µM] | TGI (DMS 273 small cell lung) [µM] | TGI (SNB-78 CNS) [µM] | TGI (M19-MEL melanoma) [µM] | TGI (SN12K1 renal) [µM] | TGI (DMS 114 small cell lung) [µM] | GI50 (DLD-1 colon) [µM] | TGI (RXF-631 renal) [µM] | GI50 (DMS 273 small cell lung) [µM] | GI50 (SNB-78 CNS) [µM] | TGI (KM20L2 colon) | GI50 (KM20L2 colon) [µM]
1 | Cc1ccc(C(=O)Nc2ncn(C3CC(O)C(CO)O3)c(=O)n2)cc1 (stereo unspecified) | > 100 | 29.5 | > 100 | > 100 | > 100 | > 100 | > 100 | > 100 | > 100 |  |  |  |  |  | 
2 | C[C@H]1CCC/C=C/[C@@H]2C[C@H](O)C[C@H]2[C@H](O)/C=C/C(=O)O1 | 17.3 |  |  |  | 0.148 | > 100 | 0.00129 |  |  | 0.0381 | 0.272 | 0.0305 | 0.0324 | 0.0368 µM and 0.0279 µM | 
3 | CCCCCCCCCCCCCCCCCC(=O)OCC1OC(OC)C(NC(=O)N(CCCl)N=O)C(O)C1O (stereo unspecified) | > 100 |  | 44 |  | 56.9 | > 100 | > 100 |  |  |  |  |  |  |  | 
4 | COc1ccc(N=Cc2ccc(N(CCC#N)S(=O)(=O)c3ccccc3)cc2C)cc1 |  |  | > 100 |  |  | > 100 | > 100 |  | > 100 |  | > 100 |  |  | > 100 µM | 
5 | O=C([CH-]C(=O)c1ccccc1)c1ccccc1.O=C([CH-]C(=O)c1ccccc1)c1ccccc1.O=C([CH-]C(=O)c1ccccc1)c1ccccc1.[Cl-].[Hf+4] |  |  |  |  |  |  |  |  |  |  |  |  |  | > 100 µM | 34.2
6 | COc1cc(C2C(=O)C(Cl)N2Nc2nc(C)cc(=O)[nH]2)cc(OC)c1OC (stereo unspecified) |  |  |  |  | 24.2 | 65.8 | > 100 |  |  |  |  |  |  | 66.5 µM | 
7 | CCN(CCO)CCNc1ccc(C)c2sc3ccccc3c(=O)c12 | 14.2 |  | 10 |  | 6.94 | 20.6 | 3.63 |  | 20.6 |  |  |  |  | 7.27 µM | 
8 | COc1ccc(N=Nc2c(N)nn(C)c2N)cc1 | > 100 |  |  |  | > 100 | > 100 | > 100 |  | > 100 |  | > 100 |  |  | > 100 µM | 
9 | CCCCCCCCCCCCSC(=S)c1c(C)[nH]n(CCCCCCCCCCCC)c1=O | > 100 |  |  |  |  | > 100 | > 100 |  | > 100 |  | > 100 |  |  | > 100 µM | 
10 | CN1NC(c2ccccc2)=C(C#N)C(=O)CC1c1ccc(F)cc1 (stereo unspecified) | > 100 |  | > 100 |  | > 100 | > 100 |  |  | > 100 |  | > 100 |  |  |  | 

From PubChem BioAssay (NCI)
